{
  "source": "patent US20150141438A1",
  "about": "“METHODS FOR DELAYING OR PREVENTING THE ONSET OF TYPE 1 DIABETES” (Pharmacyclics, Inc., priority 2013, published 2015)",
  "key": {"[1]": {"assay": "Example 3: prediabetic individual administered ibrutinib and cyclosporine A", "assay_type": "in vivo", "settings": "individual with impaired fasting glycemia and impaired glucose tolerance; ibrutinib administered with cyclosporine A", "experimental": "An individual presents with impaired fasting glycemia and impaired glucose tolerance. The individual is determined to be prediabetic."}, "[2]": {"test_system": "anti-insulin B cells", "assay": "BTK inhibitor treatment of 125Tg/NOD mice (Ibrutinib chow); B cell subsets assessed by flow cytometry in freshly isolated organs", "assay_type": "in vivo, mouse", "experimental": "After 5-10 weeks, spleen, draining pancreatic lymph nodes, and pancreas were harvested and flow cytometry was used to analyze B cell subsets. […] Mice were 12-13 weeks old at time of analysis.\nB cell subsets were assessed by flow cytometry in freshly isolated organs as outlined below.\nBM was eluted from long bones, and spleens and pancreatic draining lymph nodes (PLN) were macerated with HBSS (Invitrogen) plus 10% FBS (HyClone). Red blood cells were lysed using Tris-NH4Cl. Freshly isolated pancreata were digested with 3 mL of 1 mg/mL collagenase P diluted in HBSS for 30 min at 37° C., then tissue was disrupted using an 18-gauge needle. Ice cold HBSS plus 10% FBS was immediately added to inhibit collagenase activity. Cells were directly analyzed by flow cytometry. Flow cytometry Ab reagents were reactive with B220 (6B2), IgM^a (DS-1), CD19 (1D3), CD21 (7G6), CD23 (B3B4), CD93 (AA4.1), or IgM chain-specific) (Life Technologies). Biotin N-hydroxysuccinimide ester (Sigma) was used to biotinylate human insulin (Sigma) at pH 8.0 in bicine buffer. Streptavidin reagents (BD Biosciences) were used to detect biotinylated reagents. 7AAD (BD Biosciences) was used to identify dead cells. Sample acquisition was performed using an LSR II flow cytometer (BD Biosciences) and FlowJo software (Treestar) was used for analysis.\nBTK is a complex protein with adapter as well as kinase functions that have independent effects on various aspects of B cell development and function. […] Flow cytometry analysis of freshly isolated splenocytes was used to identify B cell subsets as in FIG. 3."}, "[3]": {"settings": "spleen, Ibrutinib vs. placebo chow, 125Tg/NOD mice"}},
  "data": [
    {"smiles": "C=CC(=O)N1CCC[C@@H](n2nc(-c3ccc(Oc4ccccc4)cc3)c3c(N)ncnc32)C1", "note": "[Ibrutinib, (R)-1-(3-(4-amino-3-(4-phenoxyphenyl)-1H-pyrazolo[3,4-d]pyrimidin-1-yl)piperidin-1-yl)prop-2-en-1-one]", "values": [
      {"measurement": "development of Type 1 Diabetes", "setting": "[1]", "result": "does not develop Type 1 Diabetes"},
      {"measurement": "trafficking of anti-insulin B lymphocytes to pancreatic draining lymph nodes or pancreas", "setting": "[2]; 125Tg/NOD mice treated with Ibrutinib", "result": "does not block their trafficking to pancreatic draining lymph nodes or pancreas"},
      {"measurement": "non-B lymphocyte numbers in spleen", "setting": "[2]; 125Tg/NOD mice, Ibrutinib chow 5-10 weeks, 38 mg/kg per day, placebo 28.6±8.3, no difference", "result": "25.1±8.5 ×10^6"},
      {"measurement": "number of B lymphocytes (B220+ IgM+ live lymphocytes) in spleen", "setting": "[2]; 125Tg/NOD mice, Ibrutinib chow 5-10 weeks, average 38 mg/kg per day, placebo 22.2±5.8, p<0.001", "result": "10.1±2.8 ×10^6"},
      {"measurement": "T2 B cell subset numbers in the spleen", "setting": "[2]; 125Tg/NOD mice, Ibrutinib chow 5-10 weeks, placebo 17±3, p=0.51, no difference", "result": "49±76 ×10^4"},
      {"measurement": "pre-marginal zone B cell numbers in the spleen", "setting": "[2]; 125Tg/NOD mice, Ibrutinib chow 5-10 weeks, placebo 43±6, p=0.0015", "result": "17±5 ×10^4"},
      {"measurement": "follicular B cell numbers in the spleen", "setting": "[2]; 125Tg/NOD mice, Ibrutinib chow 5-10 weeks, placebo 345±38, p<0.001", "result": "41±37 ×10^4"},
      {"measurement": "marginal zone B cell numbers in the spleen", "setting": "[2]; 125Tg/NOD mice, Ibrutinib chow 5-10 weeks, placebo 1283±217, p=0.002", "result": "443±164 ×10^4"},
      {"measurement": "number of B cells in the pancreas", "setting": "[2]; 125Tg/NOD mice, Ibrutinib chow, placebo 5.2±7.7, p=0.36, no significant difference", "result": "0.66±0.80 ×10^4"},
      {"measurement": "number of B cells in the pancreatic draining lymph nodes", "setting": "[2]; 125Tg/NOD mice, Ibrutinib chow, placebo 21±8, p=0.49, no significant difference", "result": "26±9 ×10^4"},
      {"measurement": "reduction in follicular B cell numbers", "setting": "[2]; [3]", "result": 88, "unit": "%"},
      {"measurement": "reduction in marginal zone B cell numbers", "setting": "[2]; [3]", "result": 65, "unit": "%"},
      {"measurement": "reduction in pre-marginal zone B cell numbers", "setting": "[2]; [3]", "result": 60, "unit": "%"}
    ]}
  ]
}
